This passage reports EC50 results from US20220177538A1, “CO-AGONISTS AT GLP-1 AND GIP RECEPTORS SUITABLE FOR ORAL DELIVERY” (Novo Nordisk A/S, priority 2020, published 2022).

The EC50 is the concentration needed to bring the measured effect to its halfway point.

Experiment [1] deals with T1, human GIP receptor (Homo sapiens, UniProt P48546).
T1 construct: expressed in transfected cells; host or cells: BHK (parent line BHKTS13), clone BHK CRE luc2P hGIPR
T1 sequence (P48546 22-466): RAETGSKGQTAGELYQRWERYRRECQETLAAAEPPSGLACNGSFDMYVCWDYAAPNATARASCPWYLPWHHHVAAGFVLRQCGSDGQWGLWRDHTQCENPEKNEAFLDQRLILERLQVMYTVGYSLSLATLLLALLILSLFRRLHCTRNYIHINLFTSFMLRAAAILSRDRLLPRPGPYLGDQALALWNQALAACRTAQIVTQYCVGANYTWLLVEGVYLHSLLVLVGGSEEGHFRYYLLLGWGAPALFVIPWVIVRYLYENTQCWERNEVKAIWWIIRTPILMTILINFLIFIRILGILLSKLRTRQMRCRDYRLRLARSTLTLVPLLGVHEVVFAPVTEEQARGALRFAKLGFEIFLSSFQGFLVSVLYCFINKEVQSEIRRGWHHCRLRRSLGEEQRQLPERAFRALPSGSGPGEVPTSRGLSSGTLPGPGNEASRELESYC
Briefly: In vitro functional potency, CRE luciferase reporter, whole BHK cells (hGIPR). The format is cell-based. Particulars: BHK CRE luc2P hGIPR cells. As to the method: (§1) The in vitro functional potency is the measure of target receptor activation in a whole cell assay.
(§2) In vitro functional potency was determined by measuring the response of the target receptor in a reporter gene assay in individual cell lines. […] When the respective receptor is activated, it results in the production of cAMP, which in turn results in expression of the luciferase protein. When assay incubation is completed, luciferase substrate (luciferin) is added resulting in the enzymatic conversion of luciferin to oxyluciferin and producing bioluminescence. The luminescence is measured as the readout for the assay.
(§3) The cells lines used in these assays were BHK cells with BHKTS13 as a parent cell line. The cell lines were derived from a clone containing the CRE luciferase element and were established by further transfection with the respective human receptor to obtain the relevant cell line: BHK CRE luc2P hGLP-1R or BHK CRE luc2P hGIPR. The cells were cultured at 37° C. with 5% CO2 in Cell Culture Medium. They were aliquoted and stored in liquid nitrogen. The cells were kept in continuous culture and were seeded out the day before each assay.
(§4) GLP-1R Cell Culture Medium consisted of DMEM medium with 10% FBS, 500 µg/mL G418, and 300 µg/mL hygromycin. GIPR Cell Culture Medium consisted of DMEM medium with 10% FBS, 400 µg/mL G418, and 300 µg/mL hygromycin. Assay Buffer consisted of DMEM w/o phenol red, 10 mM Hepes, 1× Glutamax. 1% ovalbumin, and 0.1% Pluronic F-68 with the addition of HSA at twice the final assay concentration.
(§5) 1) Cells were plated at 5000 cells/well and incubated overnight in the assay plate. 2) Cells were washed once in DPBS. 3) Stocks of the test compounds and reference compounds in concentrations ranging from […] were diluted 1:150 in Assay Buffer. Compounds were then diluted 1:10 in column 1 of a 96 deep well dilution plate and then carried across the row creating a 3.5 fold, 12 point dilution curve. 4) Assay Buffer (50 μl aliquot) with or without HSA was added to each well in the assay plate. 5) A 50 μl aliquot of compound or blank was transferred from the dilution plate to the assay plate containing the Assay Buffer with or without HSA. 6) The assay plate was incubated for 3 h in a 5% CO2 incubator at 37° C. 7) The cells were washed once with DPBS. 8) A 100 μl aliquot of DPBS was added to each well of the assay plate. 9) A 100 μl aliquot of steadylite plus reagent (light sensitive) was added to each well of the assay plate. 10) Each assay plate was covered with aluminum foil to protect it from light and shaken at 250 RPM for 30 min at room temperature. 11) Each assay plate was read in a microtiter plate reader.
(§6) The data from the microtiter plate reader was first regressed in an Excel in order to calculate the x-axis, log scale concentrations based on the individual test compound's stock concentration and the dilutions of the assay. […] The software performs a non-linear regression (log(agonist) vs response). A minimum of two replicates was measured for each sample. The reported values are averages of the replicates.
For orientation: Reporter assays use an easily measured gene product as a stand-in for the process of interest.

Experiment [2] deals with human GLP-1 receptor (Homo sapiens, UniProt P43220). Briefly: In vitro functional potency, CRE luciferase reporter, whole BHK cells (hGLP-1R). The format is cell-based. More on the design: expressed in transfected cells; host or cells: BHK (parent line BHKTS13), clone BHK CRE luc2P hGLP-1R. As to conditions: BHK CRE luc2P hGLP-1R cells. As to the method:
as §1, §2, §3, §4, §5, §6

The mark [3] stands for this setting: 0% HSA, read-out: hGIPR, CRE Luc 0% HSA EC50.
[4] abbreviates: hGIPR, CRE Luc 1% HSA EC50, 1% HSA.
The mark [5] stands for this setting: 0% HSA, read-out: hGLP-1R, CRE Luc 0% HSA EC50.
The mark [6] stands for this setting: hGLP-1R, CRE Luc 1% HSA EC50, 1% HSA.

Read-outs that look alike come from different tables or passages of the source. Starred links: 1 amine or outer side, 2 acyl side, 3 side chain; linkers in the order of their positions; H or OH if unused. Non-standard residues stand in square brackets, D forms with d. Residues, ends and D or L forms follow the SMILES beside them. Groups on a side chain read outwards from the residue. *: point of attachment. C18 diacid = O=C(O)CCCCCCCCCCCCCCCCC(=O)*; γGlu = O=C(O)[C@H](CCC(=O)[*:2])N[*:1]; εLys = N[C@@H](CCCCN[*:1])C(=O)[*:2]; Aib = CC(C)(N)C(=O)O

human GLP-1 receptor, sequence (P43220 24-463): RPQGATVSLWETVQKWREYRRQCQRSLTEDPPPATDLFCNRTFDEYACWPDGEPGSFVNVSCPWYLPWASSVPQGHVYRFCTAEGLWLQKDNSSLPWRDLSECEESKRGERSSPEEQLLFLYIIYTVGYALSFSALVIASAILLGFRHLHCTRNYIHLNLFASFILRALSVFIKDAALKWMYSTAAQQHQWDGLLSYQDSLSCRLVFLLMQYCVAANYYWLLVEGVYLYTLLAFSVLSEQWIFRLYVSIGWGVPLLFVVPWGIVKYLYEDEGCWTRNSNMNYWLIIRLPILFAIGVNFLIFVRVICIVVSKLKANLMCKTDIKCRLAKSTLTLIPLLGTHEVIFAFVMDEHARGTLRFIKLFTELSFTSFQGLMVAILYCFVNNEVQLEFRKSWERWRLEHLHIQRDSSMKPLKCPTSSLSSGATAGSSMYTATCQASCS

For the compound `CC[C@H](C)[C@H](NC(=O)[C@H](Cc1ccccc1)NC(=O)[C@H](CCC(=O)O)NC(=O)[C@H](CCCNC(=N)N)NC(=O)[C@H](C)NC(=O)[C@H](C)NC(=O)[C@H](CCC(N)=O)NC(=O)[C@H](CCCCNC(=O)[C@@H](N)CCCCNC(=O)[C@@H](N)CCCCNC(=O)CC[C@H](NC(=O)CCCCCCCCCCCCCCCCC(=O)O)C(=O)O)NC(=O)[C@H](CCC(=O)O)NC(=O)[C@H](CC(C)C)NC(=O)[C@H](CC(C)C)NC(=O)[C@@H](NC(=O)[C@H](CO)NC(=O)[C@H](Cc1ccc(O)cc1)NC(=O)[C@H](CC(=O)O)NC(=O)[C@H](CO)NC(=O)[C@@H](NC(=O)[C@H](Cc1ccccc1)NC(=O)[C@@H](NC(=O)CNC(=O)[C@H](CCC(=O)O)NC(=O)C(C)(C)NC(=O)[C@@H](N)Cc1ccc(O)cc1)[C@@H](C)O)[C@@H](C)O)[C@@H](C)CC)C(=O)N[C@@H](CCC(N)=O)C(=O)N[C@@H](Cc1c[nH]c2ccccc12)C(=O)N[C@@H](CC(C)C)C(=O)N[C@@H](CC(C)C)C(=O)N[C@@H](C)C(=O)NCC(=O)NCC(=O)N1CCC[C@H]1C(=O)N[C@@H](CO)C(=O)N[C@@H](CO)C(=O)NCC(=O)N[C@@H](C)C(=O)N1CCC[C@H]1C(=O)N1CCC[C@H]1C(=O)N1CCC[C@H]1C(=O)N[C@@H](CO)C(=O)O` [Compound 23] (H-Y[Aib]EGTFTSDYSILLEK([εLys-εLys-γGlu-C18 diacid])QAAREFIQWLLAGGPSSGAPPPS-OH), the EC50 in experiment [1] (setting [3]) amounted to 6.7 pM; in experiment [1] (setting [4]) it was 134 pM; in experiment [2] (setting [5]), 4.1 pM; in experiment [2] (setting [6]) it was 118 pM.

`CC[C@H](C)[C@H](NC(=O)[C@H](Cc1ccccc1)NC(=O)[C@H](CCC(=O)O)NC(=O)[C@H](CCCNC(=N)N)NC(=O)[C@H](C)NC(=O)[C@H](C)NC(=O)[C@H](CCC(N)=O)NC(=O)[C@H](CCCCNC(=O)[C@@H](N)CCCCNC(=O)[C@@H](N)CCCCNC(=O)CC[C@H](NC(=O)CCCCCCCCCCCCCCCCC(=O)O)C(=O)O)NC(=O)[C@H](CCC(=O)O)NC(=O)[C@H](CC(C)C)NC(=O)[C@H](CC(C)C)NC(=O)[C@@H](NC(=O)[C@H](CO)NC(=O)[C@H](Cc1ccc(O)cc1)NC(=O)[C@H](CC(=O)O)NC(=O)[C@H](CO)NC(=O)[C@@H](NC(=O)[C@H](Cc1ccccc1)NC(=O)[C@@H](NC(=O)CNC(=O)[C@H](CCC(=O)O)NC(=O)C(C)(C)NC(=O)[C@@H](N)Cc1ccc(O)cc1)[C@@H](C)O)[C@@H](C)O)[C@@H](C)CC)C(=O)N[C@@H](CCC(=O)O)C(=O)N[C@@H](Cc1c[nH]c2ccccc12)C(=O)N[C@@H](CC(C)C)C(=O)N[C@@H](CC(C)C)C(=O)N[C@@H](CCCNC(=N)N)C(=O)NCC(=O)NCC(=O)N1CCC[C@H]1C(=O)N[C@@H](CO)C(=O)N[C@@H](CO)C(=O)NCC(=O)N[C@@H](C)C(=O)N1CCC[C@H]1C(=O)N1CCC[C@H]1C(=O)N1CCC[C@H]1C(=O)N[C@@H](CO)C(=O)O` [Compound 27] (H-Y[Aib]EGTFTSDYSILLEK([εLys-εLys-γGlu-C18 diacid])QAAREFIEWLLRGGPSSGAPPPS-OH): the EC50 in experiment [1] (setting [3]) was determined as 6.3 pM; in experiment [1] (setting [4]) it was 132 pM; in experiment [2] (setting [5]) it was 4.6 pM; in experiment [2] (setting [6]) it was 127 pM.
